Test [1] concerns the target T1, arachidonate 5-lipoxygenase (Rattus norvegicus, UniProt P12527).
T1 construct: endogenous in cells; host or cells: pleural exudate cells of male Harlan Sprague-Dawley rats, 3 hr after intrapleural carrageenan
T1 sequence (P12527 1-673): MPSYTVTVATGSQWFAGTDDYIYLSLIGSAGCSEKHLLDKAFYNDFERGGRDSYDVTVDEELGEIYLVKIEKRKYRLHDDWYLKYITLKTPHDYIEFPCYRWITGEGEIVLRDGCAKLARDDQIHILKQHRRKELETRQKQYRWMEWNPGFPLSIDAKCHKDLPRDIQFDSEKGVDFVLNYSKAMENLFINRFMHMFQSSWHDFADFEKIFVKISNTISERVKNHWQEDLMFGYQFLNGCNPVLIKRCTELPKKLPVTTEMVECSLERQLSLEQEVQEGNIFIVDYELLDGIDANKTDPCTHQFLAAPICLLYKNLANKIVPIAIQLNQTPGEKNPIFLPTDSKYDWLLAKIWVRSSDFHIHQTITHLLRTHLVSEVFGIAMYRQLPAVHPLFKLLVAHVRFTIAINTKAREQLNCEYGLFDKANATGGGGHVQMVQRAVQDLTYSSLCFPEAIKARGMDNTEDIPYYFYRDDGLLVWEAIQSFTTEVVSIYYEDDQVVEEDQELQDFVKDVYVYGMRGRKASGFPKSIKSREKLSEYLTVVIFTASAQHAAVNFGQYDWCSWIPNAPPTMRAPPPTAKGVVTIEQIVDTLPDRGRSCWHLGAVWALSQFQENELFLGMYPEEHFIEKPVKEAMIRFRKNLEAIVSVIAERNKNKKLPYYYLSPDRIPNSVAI
Briefly: Arachidonate metabolism: 5-lipoxygenase inhibition in rat pleural exudate cells. The following applies: ionophore A23187, 10 μM arachidonate, 37° C., read-out: Enzymes IC50 5-LO. It counts as cell-based, rat (Harlan Sprague-Dawley male). Here is the method:
(§1) Compounds of the invention were assayed for inhibiting activity in arachidonate metabolism and PAF synthesis as follows.
(§2) A) Arachidonate Metabolism
(§3) Arachidonate cyclooxygenase, 5-lipoxygenase, and thromboxane synthetase were assayed as described in White et al, Prostaglandins, Leukotrienes and Medicine, 1985; 20: p 1-9. Pleural exudate cells were harvested from Harlan Sprague-Dawley male rats (150±20 g) 3 hr after intrapleural injection of 0.5 mg carrageenan. Cell counts were obtained from pooled exudates, which were then centrifuged at 200 g (10 min, 4° C.) and resuspended at 15 million cells/ml in 0.13M NaCl, 15 mM Tris-Cl, 5 mM glucose, pH 7.4. Portions of this cell suspension (3 million cells per assay) were preincubated with and without compound being tested for 5 min at 37° C. in 50 mM Tris-Cl, 1 mM CaCl2, pH 7.4. Ionophore A23187 (3 μM) and [^14 C]arachidonate (to give 10 μM; 55 Ci/mol) were then added in a total assay volume of 400 μl, and incubation was continued for 2 min at 37° C. Blank assays were performed using sonicated cells with 0.1 mM 3-amino-1-m-trifluoromethylphenyl pyrazol-2-ine, an inhibitor of cyclooxygenase and lipoxygenase pathways. After incubation, reaction mixtures were acidified with 20 μl of 2N HCl and extracted with 4 ml diethyl ether. Ether extracts were dried under nitrogen, resuspended in ethyl acetate, and chromatographed on Whatman LK5D silica gel G plates, using ethyl acetate/isooctane/acetic acid/water (9/5/2/10; vols; top layer after 5 min shaking). Thin layer plates were exposed to Kodak SB-5 X-ray film to produce autoradiogran. [^14 C]DPM in products were obtained by scraping appropriate regions of TLC plates and counting in a scintillation spectrometer. Effects on the 5-lipoxygenase pathway were estimated by counting 5-HETE and 5,12-diHETE (LTB4). Cyclooxygenase and thromboxane synthetase inhibition were estimated by counting thromboxane B2 and prostaglandin E2 or F2 α. Selective thromboxane inhibitors will decrease thromboxane B2 and increase PGE2 and PGF2 α. Cyclooxygenase inhibitors will inhibit the formation of all three products.

Test [2] concerns arachidonate cyclooxygenase. Briefly: Arachidonate metabolism: cyclooxygenase inhibition in rat pleural exudate cells. The following applies: ionophore A23187, 10 μM arachidonate, 37° C., read-out: Enzymes IC50 CO. Format: cell-based, rat (Harlan Sprague-Dawley male). The protocol: as §1, §2, §3
Test [3] relates to antigen-induced airway eosinophilia. In words: Inhibition of antigen-induced airway eosinophilia in the guinea pig. It counts as in vivo, guinea pig (male Hartley). To be noted: 24 h after antigen challenge. Here is the method: 2) Compounds of the invention were assayed for inhibition of Antigen-Induced airway eosinophilia as follows:
Male Hartley guinea pigs [Crl:(HA)Br, Charles River] weighing 200-300 g were sensitized to ovalbumin (OA) by intraperitioneal (i.p.) injections (in 1 ml 0.9% saline) of 20 mg followed by 1 mg 2 or 3 days later. After four to twelve weeks, the animals were treated with the antihistamine, pyrilamine (1 mg/kg i.p), 1 hour prior to exposure (17.8 l chamber) and for 10 min to an aerosol of OA (0.5% w/v solution in 0.9% sterile saline) generated from a jet nebulizer (Devilbiss Model 40; flow rate=8.51/min). […] Twenty-four hours after antigen challenge, each animal was anesthetized with sodium pentobarbital (55-75 mg/kg i.p.), the trachea cannulated and the lungs lavaged with 4×10 ml aliquots of Hanks' Balanced Salt Solution warmed to 37° C. The aliquots were pooled in 40 ml polycarbonate centrifuge tubes, centrifuged (200 g for 10 min at 4° C.) and the cell pellet resuspended in HEPES buffered solution (2 ml). Fifty μl of the suspension were added to 10 ml of Isoton Diluent (Fisher Scientific) containing three drops of lysing agent and the cells counted with a Coulter Counter (Model ZB1). Four μl of the cell suspension were spread on a 3×1 inch glass microscope slide, allowed to dry and the cells stained with DIFF-QUIK™ (Fisher Scientific). Two slides were prepared for each animal. Differential cell counts were made (100× magnification) from a minimum of four fields on 100 cells per slide (total cells counted per animal=200), using standard morphological criteria to classic cells into eosinophils, neutrophils, lymphocytes and macrophages. The activity of the test compound was calculated by comparing the mean proportions of eosinophils in the lavage fluid of compound-treated animals with controls (vehicle-treated animals) and expressing as percent inhibition.

The record followed here is patent US5776940A, “Phenylxanthine derivatives” (Glaxo Wellcome Inc., priority 1994, dated 1998).

Usually IC50 stands for the point on the concentration scale where inhibition reaches its midpoint. As for `O=C(O)/C=C/c1ccc(-c2nc3c(=O)n(CC4CCCCCC4)c(=O)n(CC4CCCCCC4)c3[nH]2)cc1` [Example 7, (E)-4-[1,3 Bis(cycloheptylmethyl)-1,2,3,6-tetrahydro-2,6-dioxo-9H-purin-8-yl]cinnamicAcid], the IC50 came to 1500 nM in test [1] and 4 µM in test [2]. The “Inhibition of Airway Eosinophilia (% inhibition)” value (from here on “Inhibition … (% inhibition)”) in test [3] (dose 6.8 mg/kg ip) is given as 50%.

`O=C(O)/C=C/c1ccc(-c2nc3c(=O)n(CC4CCCC4)c(=O)n(CC4CCCC4)c3[nH]2)cc1` [Example 4, (E)-4-[1,3 Bis(cyclopentylmethyl)-1,2,3,6-tetrahydro-2,6-dioxo-9H-purin-8-yl]cinnamicAcid]: the concentration for half-maximal inhibition (IC50) in test [1] was 6000 nM; in test [2], 5 µM. Also, the “Inhibition … (% inhibition)” value in test [3] (dose 10 mg/kg ip) is recorded as 46%.

Regarding `O=C(O)/C=C/c1ccc(-c2nc3c(=O)n(CC4CCCCC4)c(=O)n(CC4CCCCC4)c3[nH]2)cc1` [Example 1, (E)-4-[1,3 Bis(cyclohexylmethyl)-1,2,3,6-tetrahydro-2,6-dioxo-9H-purin-8-yl]cinnamic Acid], the results for the IC50 in test [1] and in test [2] were 300 nM and 0.1 µM, respectively. In test [3] (dose 5 mg/kg ip), the “Inhibition … (% inhibition)” value was determined as 50%.
